For series [1], the system named is Staphylococcus aureus. The experiment in a line: Antibacterial activity against Staphylococcus aureus ATCC 25923 assessed as inhibition of microbial growth at 0.01 to 30 uM after 24 hrs by spectrophotometric analysis. It is filed as functional, organism-based. To be noted: dose 0.01-30 µM.
The test system of another series is Escherichia coli. As to the kind of experiment: Antibacterial activity against Escherichia coli ATCC 11775 assessed as inhibition of microbial growth at 0.01 to 30 uM after 24 hrs by spectrophotometric analysis. As to conditions: dose 0.01-30 µM. The series is classed as functional, organism-based.
The next series deals with SW-620. The experiment in a line: Cytotoxicity against human SW620 cells assessed as growth inhibition at 0.01 to 30 uM incubated for 48 hrs by MTT assay. It is filed as functional, cell-based. To be noted: dose 0.01-30 µM.
Series [2] concerns Staphylococcus aureus. As to the kind of experiment: Antibacterial activity against methicillin-resistant Staphylococcus aureus AUS-RBWH-MRSA-02 assessed as inhibition of microbial growth at 0.01 to 30 uM after 24 hrs by spectrophotometric analysis. It is filed as functional, organism-based. To be noted: dose 0.01-30 µM.
Series [3] deals with ATP-dependent translocase ABCB1 (Homo sapiens, UniProt P08183). As to the kind of experiment: Inhibition of P-gp in human SW620/AD300 cells assessed as reduction in doxorubicin IC50 at 5 uM incubated for 48 hrs by MTT assat. The series is classed as functional, cell-based. To be noted: sw620/ad300, 48 h.
A further series deals with Candida albicans. The experiment in a line: Antifungal activity against Candida albicans ATCC 10231 assessed as inhibition of fungal growth at 0.01 to 30 uM after 24 hrs by spectrophotometric analysis. The series is classed as functional, organism-based. To be noted: dose 0.01-30 µM.

Activity calls are given as the source filed them. The calls are words filed in the database; no cut-off is given here.

Sequence of ATP-dependent translocase ABCB1 (P08183 whole entry): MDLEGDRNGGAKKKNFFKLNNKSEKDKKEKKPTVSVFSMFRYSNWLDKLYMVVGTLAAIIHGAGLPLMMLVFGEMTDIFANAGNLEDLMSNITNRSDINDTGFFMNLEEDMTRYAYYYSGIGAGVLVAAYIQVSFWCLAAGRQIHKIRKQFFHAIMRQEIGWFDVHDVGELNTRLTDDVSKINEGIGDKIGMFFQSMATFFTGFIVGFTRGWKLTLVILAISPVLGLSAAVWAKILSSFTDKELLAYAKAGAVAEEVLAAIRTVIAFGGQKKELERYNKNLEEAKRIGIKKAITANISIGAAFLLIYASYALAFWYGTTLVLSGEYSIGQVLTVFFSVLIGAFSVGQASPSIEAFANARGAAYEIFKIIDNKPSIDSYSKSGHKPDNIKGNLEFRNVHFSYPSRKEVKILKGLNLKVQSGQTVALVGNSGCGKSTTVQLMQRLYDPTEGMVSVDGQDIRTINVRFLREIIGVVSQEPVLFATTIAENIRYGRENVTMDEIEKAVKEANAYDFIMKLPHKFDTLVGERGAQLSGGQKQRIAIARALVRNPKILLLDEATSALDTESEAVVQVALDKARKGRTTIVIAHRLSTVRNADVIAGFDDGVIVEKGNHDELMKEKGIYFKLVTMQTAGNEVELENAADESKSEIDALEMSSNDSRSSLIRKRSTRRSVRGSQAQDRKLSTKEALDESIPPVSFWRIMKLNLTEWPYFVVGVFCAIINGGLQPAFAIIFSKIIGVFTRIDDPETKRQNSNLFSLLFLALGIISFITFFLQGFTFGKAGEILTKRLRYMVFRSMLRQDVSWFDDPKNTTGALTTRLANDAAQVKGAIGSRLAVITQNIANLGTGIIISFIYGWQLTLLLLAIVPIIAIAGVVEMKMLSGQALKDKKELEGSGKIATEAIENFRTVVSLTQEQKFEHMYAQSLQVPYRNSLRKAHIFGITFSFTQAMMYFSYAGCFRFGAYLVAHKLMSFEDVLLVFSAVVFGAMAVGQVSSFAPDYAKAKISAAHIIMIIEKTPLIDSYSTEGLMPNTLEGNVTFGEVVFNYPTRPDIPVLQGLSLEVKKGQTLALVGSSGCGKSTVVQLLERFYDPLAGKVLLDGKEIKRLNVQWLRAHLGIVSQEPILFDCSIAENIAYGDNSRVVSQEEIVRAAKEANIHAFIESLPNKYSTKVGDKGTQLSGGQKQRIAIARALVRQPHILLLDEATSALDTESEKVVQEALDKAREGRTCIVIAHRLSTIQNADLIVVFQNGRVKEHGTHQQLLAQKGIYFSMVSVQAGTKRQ

Regarding `O=C1c2ccc3c(c2Cn2cccc21)OCO3`, the inhibition result with Staphylococcus aureus [1], in the series with Escherichia coli, with Staphylococcus aureus [2] and with Candida albicans was “inactive” each time. Further, the “growth inhibition (GI)” value in the series with SW-620 is “inactive”. For the same compound, the “inhibition (INH)” value in series [3] is “Not Active”.

For `O=C1c2ccc(O)c(O)c2Cn2cccc21`, the inhibition result in the series with Staphylococcus aureus [1], in the series on Escherichia coli, with Staphylococcus aureus [2] and in the series with Candida albicans was “inactive” each time. In addition, the “growth inhibition (GI)” value with SW-620 was “inactive”. Besides, the “inhibition (INH)” value in series [3] was “Not Active”.

On to `O=C(O)c1cccn1Cc1cccc2c1OCO2`, for which the inhibition result with Staphylococcus aureus [1], in the series on Escherichia coli, in the series with Staphylococcus aureus [2] and with Candida albicans was “inactive” throughout. Moreover, the “growth inhibition (GI)” value with SW-620 was “inactive”. The “inhibition (INH)” value in series [3] is recorded as “Not Active”.

In the case of `COC(=O)c1cccn1Cc1cccc2c1OCO2`, the inhibition entry in the series on Staphylococcus aureus [1], in the series with Escherichia coli, in the series with Staphylococcus aureus [2] and in the series with Candida albicans was “inactive” throughout. Also, the “growth inhibition (GI)” value in the series with SW-620 is “inactive”. In addition, the “inhibition (INH)” value in series [3] is listed as “Not Active”.

Take `COc1cccc(Cn2cccc2C(=O)O)c1OC`: the inhibition entry in the series with Staphylococcus aureus [1], with Escherichia coli, with Staphylococcus aureus [2] and in the series on Candida albicans was “inactive” in each case. For the same compound, the “growth inhibition (GI)” value with SW-620 was “inactive”. The “inhibition (INH)” value in series [3] is reported as “Not Active”.

For `COC(=O)c1cccn1Cc1cccc(OC)c1OC`, the inhibition entry with Staphylococcus aureus [1], in the series with Escherichia coli, in the series with Staphylococcus aureus [2] and with Candida albicans was “inactive” in each case. Also, the “growth inhibition (GI)” value in the series on SW-620 was “inactive”. The “inhibition (INH)” value in series [3] is reported as “Not Active”.

Regarding `COc1ccc2c(c1OC)Cn1cccc1C2=O`, the inhibition result in the series with Staphylococcus aureus [1], in the series on Escherichia coli, in the series on Staphylococcus aureus [2] and in the series with Candida albicans was “inactive” in each case. Also, the “growth inhibition (GI)” value in the series on SW-620 is “inactive”. In addition, in series [3], the “inhibition (INH)” value is “Not Active”.

`O=C(OCc1cccc2c1OCO2)c1ccc[nH]1`: the inhibition entry in the series on Staphylococcus aureus [1], in the series with Escherichia coli, in the series on Staphylococcus aureus [2] and in the series with Candida albicans was “inactive” in each case. Moreover, the “growth inhibition (GI)” value in the series with SW-620 is “inactive”. For the same compound, the “inhibition (INH)” value in series [3] is reported as “Not Active”.

For the origin of these results see ChEMBL document CHEMBL5579881, “Synthesis of the Corrected Structure Assigned to Clonorosin B, an Alkaloid Obtained from the Soil-derived Fungus Clonostachys rosea YRS-06” (J Nat Prod, 2024).
